Experimental findings from US8834852B2, “Composition for oral cavity” (Kao Corporation, priority 2004, dated 2014) are described below.

The test system of assay [1] is coaggregation of Fusobacterium nucleatum ssp. polymorphum ATCC10953 with Streptococcus sobrinus B13. Description: Coaggregation inhibition test (precipitation of a clump). Format: cell-based. On the set-up: key to Coaggregation inhibition effect: the mixture in which no precipitation of a clump was observed was evaluated that test substance had a coaggregation inhibition effect (+); the mixture in which precipitation was observed was evaluated that the test substance had no coaggregation inhibition effect (−). To be noted: 200 μL of 2% (wt/vol %) test substance solution, room temperature for 30 minutes; for precipitation due to coaggregation: result in words. Here is the method:
(§1) Streptococcus sobrinus B13 was used as cariogenic bacteria, while Fusobacterium nucleatum ssp. polymorphum ATCC10953 was used as bacteria of the genus Fusobacterium.
After inoculation of Streptococcus sobrinus into a brain heart infusion broth, it was cultured at 37° C. for 24 hours under an anaerobic condition. Fusobacterium nucleatum ssp. polymorphum was, on the other hand, inoculated into a GAM bouillon medium and then cultured at 37° C. for 48 hours under an anaerobic condition. After completion of the cultivation, bacteria were collected by centrifugal separation and washed twice with a coaggregation buffer (1 mM tris(hydroxymethyl)aminomethane, 0.1 mM calcium chloride, 0.1 mM magnesium chloride, and 0.15 M sodium chloride). After washing, Fusobacterium nucleatum and Streptococcus sobrinus were adjusted with the coaggregation buffer to give a turbidity (OD: UV-1600, UV-Visible spectrophotometer (product of Shimadzu Corporation)), at wavelength of 600 nm, of 2.0, whereby bacteria suspensions were prepared. Test substances such as a compound represented by the formula (A) were adjusted in advance with the coaggregation buffer to give a concentration of 2% (wt/vol %). Galactose laurate was synthesized in a known manner (Patent Document 2: JP-A-2000-159675). As the other test substances, lactose, galactose, sucrose, glucose, and fructose (each, product of Wako Pure Chemicals), and β-lauryl glucoside, β-lauryl maltoside and sucrose monolaurate (each, product of Dojindo Laboratories) were employed. In the coaggregation test, 400 μL of the suspension of Fusobacterium nucleatum, 200 μL of the suspension of Streptococcus sobrinus, and 200 μL of the 2% (wt/vol %) solution of the test substance were mixed successively by using a No. 2 RIA tube (product of Asahi Techno Glass).

The test system is the same in assay [2]. Description: Percent coaggregation by turbidity change (Vmax, OD 600 nm). Format: cell-based. To be noted: final concentration 10% (wt/vol %); Vmax of coaggregation buffer control = 100%. Here is the method:
as §1
The cariogenic bacteria and bacteria of the genus Fusobacterium were cultured on a brain heart infusion broth (product of Becton, Dickinson and Company) and a GAM broth (product of Nissui Pharmaceutical), respectively, under the conditions of 37° C., and 10% CO2, 10% H2, and 80% N2 during from the logarithmic phase to stationary phase. The respective bacteria were collected by centrifugal separation at 5,000 rpm for 5 minutes. After centrifugal washing (for 5 minutes at 5,000 rpm) three times with a coaggregation buffer (1 mM tris(hydroxymethyl)aminomethane, 0.1 mM calcium chloride, 0.1 mM magnesium chloride, and 0.15 M sodium chloride), they were each adjusted to have a turbidity OD at 600 nm of 2.0.
After addition of 60 μL of each of mannitol, palatinit, erythritol, xylitol, sorbitol and lactitol (product of Wako Pure Chemicals) to a 96-well microtiterplate to give the final concentration of 10% (wt/vol %), 30 μL of the bacteria of the genus Fusobacterium was dispensed and stirred, followed by the addition of 30 μL of the cariogenic bacteria. Then, by using a microplate reader (product of Molecular Devices), the turbidity (OD at 600 nm) was measured at one-minute intervals for 30 minutes and a change ratio Vmax (mOD/min) of the turbidity was calculated. Using the Vmax of a similar mixture containing the coaggregation buffer instead of the test substance as control (100%), the percent coaggregation was calculated. Based on a value thus obtained, the coaggregation reaction was measured.

In the case of “Galactose laurate [Galactose monolaurate]”, in assay [1], the Coaggregation inhibition effect result is recorded as “+” and the “precipitation due to coaggregation” value is reported as “no precipitation due to coaggregation is observed”.

The compound `OC[C@@H](O)[C@@H](O)[C@H](O)[C@@H](O)CO` [sorbitol] yielded a percent coaggregation in assay [2] of 62%.

Consider `CCCCCCCCO[C@H]1O[C@H](CO)[C@H](O)[C@H](O)[C@H]1O` [α-Octyl galactoside, α-octyl galactoside], for which, in assay [1], the Coaggregation inhibition effect entry is “+” and the “precipitation due to coaggregation” value is recorded as “no precipitation due to coaggregation is observed”.

`OC[C@@H](O)[C@@H](O)[C@H](O)[C@H](O)CO` [mannitol] gave a percent coaggregation in assay [2] of 16%.

Consider `OC[C@H]1O[C@@](CO)(O[C@H]2O[C@H](CO)[C@@H](O)[C@H](O)[C@H]2O)[C@@H](O)[C@@H]1O` [Sucrose, sucrose], for which, in assay [1], the Coaggregation inhibition effect entry is recorded as “−” and the “precipitation due to coaggregation” value was “obvious precipitation due to coaggregation is observed”.

Turning to `CCCCCCCCCCCCOCCOCCOCCO[C@@H]1O[C@H](CO)[C@H](O)[C@H](O)[C@H]1O` [β-Trioxyethylene dodecylgalactoside, β-trioxyethylene lauryl galactoside], in assay [1], the Coaggregation inhibition effect entry is “+” and the “precipitation due to coaggregation” value is given as “no precipitation due to coaggregation is observed”.

Turning to `OC[C@H]1O[C@@H](O[C@H]2[C@H](O)[C@@H](O)C(O)O[C@@H]2CO)[C@H](O)[C@@H](O)[C@H]1O` (stereo partly shown) [Lactose, lactose], in assay [1], the Coaggregation inhibition effect entry was “+” and the “precipitation due to coaggregation” value was “no precipitation due to coaggregation is observed”.

`OC[C@@H](O)[C@@H](O[C@@H]1O[C@H](CO)[C@H](O)[C@H](O)[C@H]1O)[C@H](O)[C@@H](O)CO` [lactitol] yielded a percent coaggregation in assay [2] of 0%.

Compound `OC[C@@H](O)[C@H](O)[C@@H](O)CO` [xylitol] yielded a percent coaggregation in assay [2] of 20%.

As for `OC[C@@H](O)[C@@H](O)CO` [erythritol], the percent coaggregation in assay [2] was 35%.

Consider `O=C(CO)[C@@H](O)[C@H](O)[C@H](O)CO` [Fructose, fructose], for which, in assay [1], the Coaggregation inhibition effect entry is reported as “−” and the “precipitation due to coaggregation” value is given as “obvious precipitation due to coaggregation is observed”.

For `CCCCCCCCCCCCO[C@@H]1O[C@H](CO)[C@@H](O)[C@H](O)[C@H]1O` [β-Lauryl glucoside, β-lauryl glucoside], in assay [1], the Coaggregation inhibition effect entry was “−” and the “precipitation due to coaggregation” value is “obvious precipitation due to coaggregation is observed”.

sucrose monolaurate: in assay [1], the Coaggregation inhibition effect entry is recorded as “−” and the “precipitation due to coaggregation” value was “obvious precipitation due to coaggregation is observed”.

`O=C[C@H](O)[C@@H](O)[C@@H](O)[C@H](O)CO` [Galactose, galactose]: in assay [1], the Coaggregation inhibition effect result is listed as “+” and the “precipitation due to coaggregation” value is “no precipitation due to coaggregation is observed”.

In turn, palatinit displayed a percent coaggregation in assay [2] of 71%.

Take `CCCCCCCCO[C@@H]1O[C@H](CO)[C@H](O)[C@H](O)[C@H]1O` [β-octyl galactoside]: in assay [1], the Coaggregation inhibition effect entry is “+” and the “precipitation due to coaggregation” value is on record as “no precipitation due to coaggregation is observed”.

For the compound `CCCCCCCCCCCCO[C@@H]1O[C@H](CO)[C@@H](O[C@H]2O[C@H](CO)[C@@H](O)[C@H](O)[C@H]2O)[C@H](O)[C@H]1O` [β-Lauryl maltoside, β-lauryl maltoside], in assay [1], the Coaggregation inhibition effect entry is “−” and the “precipitation due to coaggregation” value was “obvious precipitation due to coaggregation is observed”.
